The source of these data is patent publication US20070197552A1, “Method and composition for treatment of diabetes, hypertension, chronic heart failure and fluid retentive states” (Novo Nordisk A/S, priority 2002, published 2007).

Where a name gives a salt, the structure may show the parent alone.

Data set [1] has as its system Non-fasted anaesthetised pigs. In words: In vivo testing of combination treatment: GLP-1 infusion and iv glucose load under DPP IV inhibition, with and without NEP 24.11 inhibition. Further details: species or system pig. How it is done: Non-fasted anaesthetised pigs (n=5) were given valine-pyrrolidide (250 μmol/kg; V) to inhibit DPP IV activity throughout the experiment. An intraveneous (iv) infusion of GLP-1 (0.75 pmol/kg/min) was started, during which an iv glucose load (0.2 g/kg over 9 min) was given. 90 min after the end of the first GLP-1 infusion, candoxatril was administered iv (5 mg/kg; C), and the protocol (GLP-1 and glucose infusion) was repeated. In addition, during both GLP-1 infusions, simultaneous blood samples were taken from the carotid artery, the renal, femoral, hepatic and portal veins for determination of arterio-venous GLP-1 concentration differences. Samples were analysed for blood glucose, insulin, glucagon and GLP-1 concentrations.

Setting [2] is: anaesthetised pigs, iv GLP-1 infusion.

In the case of `Cn1c(=O)c2c(nc(N3CC[C@H](N)C3)n2Cc2ccccc2Br)n(C)c1=O` (as salt: HCl) [Example 12, (S) 8-(3-Aminopyrrolidin-1-yl)-7-(2-bromobenzyl)-1,3-dimethyl-3,7-dihydropurine-2,6-dione], the melting point lay in the range of 215 to 217 °C.

For the compound `CC(C)[C@H](N)C(=O)N1CCCC1` [VP, valine-pyrrolidide], in data set [1] (anaesthetised pigs n=5, iv GLP-1 infusion 0.75 pmol/kg/min, valine-pyrrolidide 250 μmol/kg, candoxatril 5 mg/kg iv, FIG. 1), the “plasma levels of GLP-1 (plateau level)” value turned out to be 73 ± 13 pmol/L. Moreover, the glucagon concentrations in data set [1] (anaesthetised pigs, 20 min period following C administration, before start of the GLP-1 infusion, FIG. 4) was 9 ± 2 pmol/L. Also, the “insulin secretion (AUC27-67 min)” value in data set [1] (anaesthetised pigs, GLP-1 and glucose infusion, FIG. 3) was 3606 ± 668 pmol·min/L. Moreover, the “renal clearance (organ extraction) of GLP-1” value in data set [1] (anaesthetised pigs, calculated from arterio-venous GLP-1 concentration differences) is given as 58.7±4.3%. Also, in data set [1] (setting [2]), the “metabolic clearance rate of GLP-1” value came to 25.1 ± 3.9 mL/min/kg and the “plasma t½ of GLP-1” value worked out at 2.5 ± 0.2 min. In addition, in data set [1] (anaesthetised pigs, iv glucose load 0.2 g/kg over 9 min during GLP-1 infusion, FIG. 2), the “glucose excursion (ΔAUC2-77 min)” value was determined as 59 ± 4 mmol·min/L. Also, the glucose elimination rate in data set [1] (anaesthetised pigs, iv glucose load during GLP-1 infusion) was 6.6±0.5 %/min.

`Cn1c(=O)c2c(nc(N3CC[C@H](N)C3)n2Cc2ccccc2C#N)n(C)c1=O` (as salt: HCl) [Example 8, (S) 2-(8-(3-Aminopyrrolidin-1-yl)-1,3-dimethyl-2,6-dioxo-1,2,3,6-tetrahydropurin-7-ylmethyl)benzonitrile]: the melting point is 104 to 117 °C.

Take `Cn1c(=O)c2c(nc(N3CC[C@H](N)C3)n2Cc2ccccc2)n(C)c1=O` (as salt: HCl) [Example 3, (S) 8-(3-Aminopyrrolidin-1-yl)-7-benzyl-1,3-dimethyl-3,7-dihydropurine-2,6-dione]: the melting point fell in the range of 166 to 169 °C.
